Data as given in patent publication US5502035A, “N-terminus modified analogs of LHRH” (Tap Holdings Inc., priority 1994, dated 1996).
Non-standard residues stand in square brackets, D forms with d. Residues, ends and D or L forms follow the SMILES beside them. *: point of attachment. Shikimoyl = O=C(C1=C[C@@H](O)[C@@H](O)[C@H](O)C1)*; Tetrahydrofuroyl(2R) = O=C([C@H]1CCCO1)*; dPhe(4-Cl) = N[C@H](Cc1ccc(Cl)cc1)C(=O)O; d2Nal = N[C@H](Cc1ccc2ccccc2c1)C(=O)O; Acetyl(3-pyridyl) = O=C(Cc1cccnc1)*; NMeY = CN[C@@H](Cc1ccc(O)cc1)C(=O)O; dCit = NC(=O)NCCC[C@@H](N)C(=O)O; hArg = N=C(N)NCCCC[C@H](N)C(=O)O; d3Pal = N[C@H](Cc1cccnc1)C(=O)O; Isonicotinoyl = O=C(c1ccncc1)*; Nicotinoyl = O=C(c1cccnc1)*; Picolinoyl = O=C(c1ccccn1)*; X2 = O=C1CC[C@@H](C(=O)*)O1; X8 = O=C1CC[C@H](C(=O)*)O1; 2Furoyl = O=C(c1ccco1)*

Biological target: T1, LHRH (Rattus norvegicus, UniProt P30969)
T1 construct: endogenous in cells; host or cells: rat pituitary cells (own knowledge of the cited Haviv 1989 method)
T1 sequence (P30969 1-327): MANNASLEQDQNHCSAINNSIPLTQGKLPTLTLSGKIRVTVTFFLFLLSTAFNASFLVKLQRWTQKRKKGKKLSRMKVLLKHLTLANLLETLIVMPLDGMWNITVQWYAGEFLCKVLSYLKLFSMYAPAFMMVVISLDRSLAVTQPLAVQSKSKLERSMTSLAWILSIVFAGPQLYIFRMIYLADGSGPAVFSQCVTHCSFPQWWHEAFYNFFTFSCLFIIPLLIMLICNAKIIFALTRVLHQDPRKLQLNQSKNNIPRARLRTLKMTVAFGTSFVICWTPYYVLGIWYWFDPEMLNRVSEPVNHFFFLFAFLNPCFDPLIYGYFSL
Assay: in vitro test for LHRH antagonist potency (pA2)
Assay type: cell-based
Conditions: negative logarithm of the antagonist concentration required to shift the response curve produced by the agonist leuprolide to two-fold higher concentration
Procedure, shortened: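 Antagonism read against the agonist leuprolide on rat LHRH receptor; value is pA2, the −log of antagonist concentration that doubles the agonist concentration needed for the same response.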

SMILES	Kb
CC(C)C[C@H](NC(=O)[C@@H](CCCNC(N)=O)NC(=O)[C@H](Cc1ccc(O)cc1)N(C)C(=O)[C@H](CO)NC(=O)[C@@H](Cc1cccnc1)NC(=O)[C@@H](Cc1ccc(Cl)cc1)NC(=O)[C@@H](Cc1ccc2ccccc2c1)NC(=O)[C@H]1CCCO1)C(=O)N[C@@H](CCCNC(=N)N)C(=O)N1CCC[C@H]1C(=O)N[C@H](C)C(N)=O [Example 77, N-(R)-Tetrahydofur-2-oyl-D2Nal-D4ClPhe-D3Pal-Ser-NMeTyr-DCit-Leu-Arg-Pro-DAlaNH2] ({Tetrahydrofuroyl(2R)}-[d2Nal][dPhe(4-Cl)][d3Pal]S[NMeY][dCit]LRP[dA]-NH2)	0.0141 nM
CC(C)C[C@H](NC(=O)[C@@H](CCCNC(N)=O)NC(=O)[C@H](Cc1ccc(O)cc1)N(C)C(=O)[C@H](CO)NC(=O)[C@@H](Cc1cccnc1)NC(=O)[C@@H](Cc1ccc(Cl)cc1)NC(=O)[C@@H](Cc1ccc2ccccc2c1)NC(=O)[C@H]1CCC(=O)O1)C(=O)N[C@@H](CCCNC(=N)N)C(=O)N1CCC[C@H]1C(=O)N[C@H](C)C(N)=O [Example 78a, N-(R)-5-Oxo-tetrahydrofur-2-oyl-D2Nal-D4ClPhe-D3Pal-Ser-NMeTyr-DCit-Leu-Arg-Pro-DAlaNH2] (X8-[d2Nal][dPhe(4-Cl)][d3Pal]S[NMeY][dCit]LRP[dA]-NH2)	0.0105 nM
CC(C)C[C@H](NC(=O)[C@@H](CCCNC(N)=O)NC(=O)[C@H](Cc1ccc(O)cc1)N(C)C(=O)[C@H](CO)NC(=O)[C@@H](Cc1cccnc1)NC(=O)[C@@H](Cc1ccc(Cl)cc1)NC(=O)[C@@H](Cc1ccc2ccccc2c1)NC(=O)[C@@H]1CCC(=O)O1)C(=O)N[C@@H](CCCNC(=N)N)C(=O)N1CCC[C@H]1C(=O)N[C@H](C)C(N)=O [Example 78b, N-(S)-5-Oxo-tetrahydrofur-2-oyl-D2Nal-D4ClPhe-D3Pal-Ser-NMeTyr-DCit-Leu-Arg-Pro-DAlaNH2] (X2-[d2Nal][dPhe(4-Cl)][d3Pal]S[NMeY][dCit]LRP[dA]-NH2)	0.00832 nM
CC(C)C[C@H](NC(=O)[C@@H](CCCNC(N)=O)NC(=O)[C@H](Cc1ccc(O)cc1)N(C)C(=O)[C@H](CO)NC(=O)[C@@H](Cc1cccnc1)NC(=O)[C@@H](Cc1ccc(Cl)cc1)NC(=O)[C@@H](Cc1ccc2ccccc2c1)NC(=O)C1=C[C@@H](O)[C@@H](O)[C@H](O)C1)C(=O)N[C@@H](CCCNC(=N)N)C(=O)N1CCC[C@H]1C(=O)N[C@H](C)C(N)=O [Example 78c, N-Shikimyl-D2Nal-D4ClPhe-D3Pal-Ser-NMeTyr-DCit-Leu-Arg-Pro-DAlaNH2] (Shikimoyl-[d2Nal][dPhe(4-Cl)][d3Pal]S[NMeY][dCit]LRP[dA]-NH2)	0.0132 nM
CC(C)C[C@H](NC(=O)[C@@H](CCCNC(N)=O)NC(=O)[C@H](Cc1ccc(O)cc1)N(C)C(=O)[C@H](CO)NC(=O)[C@@H](Cc1cccnc1)NC(=O)[C@@H](Cc1ccc(Cl)cc1)NC(=O)[C@@H](Cc1ccc2ccccc2c1)NC(=O)c1ccco1)C(=O)N[C@@H](CCCNC(=N)N)C(=O)N1CCC[C@H]1C(=O)N[C@H](C)C(N)=O [Example 78d, N-2-Furoyl-D2Nal-D4ClPhe-D3Pal-Ser-NMeTyr-DCit-Leu-Arg-Pro-DAlaNH2] (2Furoyl-[d2Nal][dPhe(4-Cl)][d3Pal]S[NMeY][dCit]LRP[dA]-NH2)	0.00794 nM
CC(C)C[C@H](NC(=O)[C@@H](CCCNC(N)=O)NC(=O)[C@H](Cc1ccc(O)cc1)N(C)C(=O)[C@H](CO)NC(=O)[C@@H](Cc1cccnc1)NC(=O)[C@@H](Cc1ccc(Cl)cc1)NC(=O)[C@@H](Cc1ccc2ccccc2c1)NC(=O)c1ccncc1)C(=O)N[C@@H](CCCNC(=N)N)C(=O)N1CCC[C@H]1C(=O)N[C@H](C)C(N)=O [Example 78e, N-Isonicotinyl-D2Nal-D4ClPhe-D3Pal-Ser-NMeTyr-DCit-Leu-Arg-Pro-DAlaNH2] (Isonicotinoyl-[d2Nal][dPhe(4-Cl)][d3Pal]S[NMeY][dCit]LRP[dA]-NH2)	0.0162 nM
CC(C)C[C@H](NC(=O)[C@@H](CCCNC(N)=O)NC(=O)[C@H](Cc1ccc(O)cc1)N(C)C(=O)[C@H](CO)NC(=O)[C@@H](Cc1cccnc1)NC(=O)[C@@H](Cc1ccc(Cl)cc1)NC(=O)[C@@H](Cc1ccc2ccccc2c1)NC(=O)c1ccccn1)C(=O)N[C@@H](CCCNC(=N)N)C(=O)N1CCC[C@H]1C(=O)N[C@H](C)C(N)=O [Example 78f, N-Picolinoyl-D2Nal-D4ClPhe-D3Pal-Ser-NMeTyr-DCit-Leu-Arg-Pro-DAlaNH2] (Picolinoyl-[d2Nal][dPhe(4-Cl)][d3Pal]S[NMeY][dCit]LRP[dA]-NH2)	0.0316 nM
CC(C)C[C@H](NC(=O)[C@@H](CCCNC(N)=O)NC(=O)[C@H](Cc1ccc(O)cc1)N(C)C(=O)[C@H](CO)NC(=O)[C@@H](Cc1cccnc1)NC(=O)[C@@H](Cc1ccc(Cl)cc1)NC(=O)[C@@H](Cc1ccc2ccccc2c1)NC(=O)c1cccnc1)C(=O)N[C@@H](CCCNC(=N)N)C(=O)N1CCC[C@H]1C(=O)N[C@H](C)C(N)=O [Example 78g, N-Nicotinyl-D2Nal-D4ClPhe-D3Pal-Ser-NMeTyr-DCit-Leu-Arg-Pro-DAlaNH2] (Nicotinoyl-[d2Nal][dPhe(4-Cl)][d3Pal]S[NMeY][dCit]LRP[dA]-NH2)	0.00708 nM
CC(C)C[C@H](NC(=O)[C@@H](CCCNC(N)=O)NC(=O)[C@H](Cc1ccc(O)cc1)N(C)C(=O)[C@H](CO)NC(=O)[C@@H](Cc1cccnc1)NC(=O)[C@@H](Cc1ccc(Cl)cc1)NC(=O)[C@@H](Cc1ccc2ccccc2c1)NC(=O)Cc1cccnc1)C(=O)N[C@@H](CCCNC(=N)N)C(=O)N1CCC[C@H]1C(=O)N[C@H](C)C(N)=O [Example 78h, N-(3-Pyridylacetyl)-D2Nal-D4ClPhe-D3Pal-Ser-NMeTyr-DCit-Leu-Arg-Pro-DAlaNH2] ({Acetyl(3-pyridyl)}-[d2Nal][dPhe(4-Cl)][d3Pal]S[NMeY][dCit]LRP[dA]-NH2)	0.0316 nM
CC(C)C[C@H](NC(=O)[C@@H](CCCCNC(=O)C1=C[C@@H](O)[C@@H](O)[C@H](O)C1)NC(=O)[C@H](Cc1ccc(O)cc1)N(C)C(=O)[C@H](CO)NC(=O)[C@@H](Cc1cccnc1)NC(=O)[C@@H](Cc1ccc(Cl)cc1)NC(=O)[C@@H](Cc1ccc2ccccc2c1)NC(=O)C1=C[C@@H](O)[C@@H](O)[C@H](O)C1)C(=O)N[C@@H](CCCCNC(=N)N)C(=O)N1CCC[C@H]1C(=O)N[C@H](C)C(N)=O [Example 79, N-Shikimyl-D2Nal-D4ClPhe-D3Pal-Ser-NMeTyr-DLys(Shik)-Leu-Harg-Pro-DAlaNH2] (Shikimoyl-[d2Nal][dPhe(4-Cl)][d3Pal]S[NMeY][dK](Shikimoyl)L[hArg]P[dA]-NH2)	0.0195 nM
CC(C)C[C@H](NC(=O)[C@@H](CCCCNC(=O)c1cccnc1)NC(=O)[C@H](Cc1ccc(O)cc1)N(C)C(=O)[C@H](CO)NC(=O)[C@@H](Cc1cccnc1)NC(=O)[C@@H](Cc1ccc(Cl)cc1)NC(=O)[C@@H](Cc1ccc2ccccc2c1)NC(=O)CNC(=O)[C@@H]1CCCO1)C(=O)N[C@@H](CCCCNC(C)C)C(=O)N1CCC[C@H]1C(=O)N[C@@H](C)C(N)=O [Example 80, N-(S)-2-Tetrahydrofuroyl-Gly-D2Nal-D4ClPhe-D3Pal-Ser-NMeTyr-DLys(N-epsilon- Nicotinyl) -Leu-Lys(N-epsilon-Isopropyl)-Pro-AlaH2]	0.0126 nM
